# In patent US20250122171A1, “Substituted Amine Compounds, Compositions and Methods of Use” (Deep Apple Therapeutics, Inc., priority 2023, published 2025):
# Assays:
# Type in all cases: cell-based
# [1] = system: LAD-2 cells; assay: LAD2 Degranulation Assay (Protocol 1), β-hexosaminidase release; details: Homo sapiens, 1 μM Cortistatin-14, 30 minute preincubation, top concentration 3 μM
# Procedure: (§1) LAD-2 cells were maintained at 37° C. with 5% CO2 and grown in complete StemPro-34 media supplemented with 1% L-Glutamate, 1% penicillin/streptomycin, and 250 ng/mL human SCF.
# On the day of experiment, cells were collected by centrifugation and seeded in 384-well assay plates, at 4,000 cells per well in 10 μl freshly made assay buffer (10 mM HEPES, 130 mM NaCl, 5 mM KCl, 1.8 mM CaCl2), 1.0 mM MgCl2, 5.6 mM glucose, 0.1% BSA, pH=7.40). For dose-response assays, compounds solubilized in 100% DMSO at 30 mM were serially diluted (1:3) first in 100% DMSO, and 2 intermediate dilutions with assay buffer were used to establish a final top concentration of 3 μM (in assay plate). Final DMSO concentration was kept constant at 0.1% across plates for all assays. Cortistatin-14 at 30 mM stock concentration was solubilized in HBSS+0.1% BSA, stored at −20° C. in 5 μl aliquots and discarded after one freeze-thaw cycle. Final concentration of agonist used in both dose-response and single point assays was 1 μM, prepared in assay buffer.
# (§2) Antagonist equilibrium was established with 30 minute preincubation, followed by no wash, direct addition, and stimulation of agonist for 30 minutes at 37° C. For detection of β-hexosaminidase activity, assay plates were centrifuged and 5 μl of cell-free supernatant from each assay well was transferred to a black-walled black-bottomed 384-well plate. Substrate solution (1 mM 4-Methylumbelliferyl N-acetyl-β-D-glucosaminide in citrate buffer, pH=4.5, 15 μl) was added to each well and plates were incubated for 1 hour at 37° C. The plate was read on an EnVision XCite plate reader for umbelliferone fluorescence intensity (λex=355 nm, λem=460 nm). Background-subtracted data was analyzed using either GraphPad Prism or a custom Python script to calculate IC50 using either Log[Antagonist] vs. response (4 parameter) nonlinear regression (dose-response assays).
# [2] = target: T1, human MRGPRX2 (Homo sapiens, UniProt Q96LB1); assay: MRGPRX2 Activity Assay (IP-1 HTRF, antagonist mode); details: FlpIn TRex-MRGPRX2-HEK293 cells; versus 1 μM Cortistatin-14 agonist; 30 minutes preincubation
# T1 construct: expressed in transfected cells; host or cells: FlpIn TRex HEK293 (TRex-MRGPRX2-HEK), doxycycline-induced
# T1 sequence (Q96LB1 1-330): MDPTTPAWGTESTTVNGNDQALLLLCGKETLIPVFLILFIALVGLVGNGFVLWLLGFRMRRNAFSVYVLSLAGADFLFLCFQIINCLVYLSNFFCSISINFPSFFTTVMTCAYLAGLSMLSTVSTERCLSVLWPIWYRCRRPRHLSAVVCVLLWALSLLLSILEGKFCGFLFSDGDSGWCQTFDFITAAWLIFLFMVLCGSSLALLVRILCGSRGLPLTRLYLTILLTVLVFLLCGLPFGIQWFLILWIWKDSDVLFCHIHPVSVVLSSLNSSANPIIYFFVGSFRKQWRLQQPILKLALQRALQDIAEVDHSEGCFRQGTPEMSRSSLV
# Summary of the method: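 Doxycycline-induced (100 ng/mL, 18-24 h) TRex HEK293 cells stably expressing human MRGPRX2, in HBSS/20 mM HEPES/0.1% BSA/10 mM LiCl. Compounds (top final 30 uM, 1% DMSO) preincubated 30 min, then agonist stimulation 1 h at 37° C without wash. IP-1 accumulation read by HTRF; IC50 from 4-parameter fit.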
# [3] = system: LAD-2 cells; assay: LAD2 Degranulation Assay (Protocol 2), β-hexosaminidase release; details: Homo sapiens; for IC50: 0.5 μM Cortistatin-14, 2 h preincubation, cells without SCF 18-24 hours, top concentration 3 μM; for activity at 0.25 µM: single point 250 nM, 0.5 μM Cortistatin-14, % control β-hexosaminidase activity
# Procedure: as §1
# 18-24 hours prior to experiment, LAD-2 cells were collected and transferred to growth media without SCF. On the day of experiment, cells were collected by centrifugation and seeded in 384-well assay plates, at 4,000 cells per well in 17 μl freshly made assay buffer (10 mM HEPES, 137 mM NaCl, 2.7 mM KCl, 1.8 mM CaCl2), 1.0 mM MgCl2, 5.6 mM glucose, 0.4 mM NaH2PO4, 0.04% BSA, pH=7.40). For dose-response assays, compounds solubilized in 100% DMSO at 30 mM were serially diluted (1:3) first in 100% DMSO, and 2 intermediate dilutions with assay buffer were used to establish a final top concentration of 3 μM (in assay plate). For single point assays, dilution of DMSO stocks to 250 nM (in assay plate) was performed in the same manner as described for dose-response assays. Final DMSO concentration was kept constant at 0.1% across plates for all assays. Cortistatin-14 at 30 mM stock concentration was solubilized in HBSS+0.1% BSA, stored at −20° C. in 5 μl aliquots and discarded after one freeze-thaw cycle. Final concentration of agonist used in both dose-response and single point assays was 0.5 μM, prepared in assay buffer.
# as §2, with “with 2 h” for “with 30 minute”, “[…])” for “15 μl)”, “(dose-response assays) or % control β-hexosaminidase activity (single point” for “(dose-response”
SMILES,IC50 [1],IC50 [2],IC50 [3],activity at 0.25 µM [3]
"C[C@H](C(=O)Nc1cn(Cc2cc(F)cc(F)c2)c(C(F)(F)F)n1)N1CCC(F)(F)[C@@H](c2cc[n+]([O-])cc2)C1 (single isomer, unassigned) [Compound 26]",40 nM,13 nM,,
"C[C@@H](C(=O)Nc1noc(Cc2cc(F)cc(F)c2)n1)N1CCC(F)(F)[C@@H](c2cc[n+]([O-])cc2)C1 (single isomer, unassigned) [Compound 56]",976 nM,76 nM,,
"C[C@@H](C(=O)Nc1cn(Cc2cc(F)cc(F)c2)c(C(F)F)n1)N1CCC(F)(F)[C@@H](c2c[nH]c(=O)c(CO)c2)C1 (single isomer, unassigned) [Compound 490]",,3.5 nM,34 nM,
"C[C@@H](C(=O)Nc1cn2c(n1)CC[C@@H]2c1cc(F)cc(F)c1)N1CCC(F)(F)[C@@H](c2ccc(=O)[nH]c2)C1 (single isomer, unassigned) [Compound 493]",,> 30000 nM,> 3000 nM,
"C[C@H](C(=O)Nc1cn2c(n1)CC[C@H]2c1cc(F)cc(F)c1)N1CCCCC1 (single isomer, unassigned) [Compound 499]",,> 30000 nM,> 3000 nM,
"C[C@@H](C(=O)Nc1cn2c(n1)CC[C@H]2c1cc(F)cc(F)c1)N1CCCCC1 (single isomer, unassigned) [Compound 500]",,> 30000 nM,> 3000 nM,
"C[C@@H](C(=O)Nc1cn2c(n1)CC[C@@H]2c1cc(F)cc(F)c1)N1CCC(F)(F)[C@H](c2c[nH]c(=O)c([C@H](N)C(F)F)c2)C1 (single isomer, unassigned) [Compound 537]",,,,10%
"C[C@@H](C(=O)Nc1cn2c(n1)CC[C@@H]2c1cc(F)cc(F)c1)N1CCC(F)(F)[C@@H](c2c[nH]c(=O)c([C@@H](N)C(F)F)c2)C1 (single isomer, unassigned) [Compound 538]",,,,81%
"C[C@@H](C(=O)Nc1cn2c(n1)CC[C@@H]2c1cc(F)cc(F)c1)N1CCC(F)(F)[C@H](c2c[nH]c(=O)c([C@@H](N)C(F)F)c2)C1 (single isomer, unassigned) [Compound 539]",,,,12%
"C[C@@H](C(=O)Nc1cn2c(n1)CC[C@@H]2c1cc(F)cc(F)c1)N1CCC(F)(F)[C@@H](c2c[nH]c(=O)c(C(N)C(F)(F)F)c2)C1 (single isomer, unassigned) [Compound 540]",,,,124%
"C[C@@H](C(=O)Nc1cn2c(n1)CC[C@@H]2c1cc(F)cc(F)c1)N1CCC(F)(F)[C@H](c2c[nH]c(=O)c(C(N)C(F)(F)F)c2)C1 (single isomer, unassigned) [Compound 541]",,,,11%
"C[C@@H](C(=O)Nc1cn2c(n1)CC[C@@H]2c1cc(F)cc(F)c1)N1CCC(F)(F)[C@@H](c2c[nH]c(=O)c(CN3CCC(F)(F)CC3)c2)C1 (single isomer, unassigned) [Compound 542]",,,,126%
"C[C@@H](C(=O)Nc1cn2c(n1)CC[C@@H]2c1cc(F)cc(F)c1)N1CCC(F)(F)[C@H](c2c[nH]c(=O)c(CN3CCC(F)(F)CC3)c2)C1 (single isomer, unassigned) [Compound 543]",,,,59%
"C[C@@H](C(=O)Nc1cn2c(n1)CC[C@@H]2c1cc(F)cc(F)c1)N1CCC(F)(F)C(c2c[nH]c(=O)c(CO)n2)C1 (stereo partly drawn) [Compound 544, (2S)-2-(4,4-difluoro-3-(6-(hydroxymethyl)-5-oxo-4,5-dihydropyrazin-2-yl)piperidin-1-yl)-N—((R)-5-(3,5-difluorophenyl)-6,7-dihydro-5H-pyrrolo[1,2-a]imidazol-2-yl)propanamide]",,,,81%
"C[C@@H](C(=O)Nc1cn2c(n1)CC[C@@H]2c1cc(F)cc(F)c1)N1CCC(F)(F)C(c2cc[n+]([O-])c(C(O)CO)c2)C1 (stereo partly drawn) [Compound 545, 4-(1-((S)-1-(((R)-5-(3,5-difluorophenyl)-6,7-dihydro-5H-pyrrolo[1,2-a]imidazol-2-yl)amino)-1-oxopropan-2-yl)-4,4-difluoropiperidin-3-yl)-2-(1,2-dihydroxyethyl)pyridine 1-oxide]",,,,16%
"C[C@@H](C(=O)Nc1cn2c(n1)CC[C@@H]2c1cc(F)cc(F)c1)N1CCC(F)(F)C(c2c[nH]c(=O)c(C(O)CO)c2)C1 (stereo partly drawn) [Compound 546, (2S)—N—((R)-5-(3,5-difluorophenyl)-6,7-dihydro-5H-pyrrolo[1,2-a]imidazol-2-yl)-2-(3-(5-(1,2-dihydroxyethyl)-6-oxo-1,6-dihydropyridin-3-yl)-4,4-difluoropiperidin-1-yl)propanamide]",,,,34%

# The next lines start with results.
IC50 [1],IC50 [2],IC50 [3],SMILES,activity at 0.25 µM [3]
> 3000 nM,45 nM,,"C[C@@H](C(=O)Nc1cn(Cc2ccc(F)cc2F)c(C(F)(F)F)n1)N1CCC(F)(F)[C@@H](c2cc[n+]([O-])cc2)C1 (single isomer, unassigned) [Compound 7]",
28 nM,17 nM,,"Cc1nc(NC(=O)[C@H](C)N2CCC(F)(F)[C@@H](c3cc[n+]([O-])cc3)C2)cn1Cc1ccc(F)cc1F (single isomer, unassigned) [Compound 9]",
1.6 nM,2.1 nM,,"Cc1nc(NC(=O)[C@H](C)N2CCC(F)(F)[C@@H](c3cc[n+]([O-])cc3)C2)cn1Cc1cc(F)cc(F)c1 (single isomer, unassigned) [Compound 19]",
0.7 nM,3.3 nM,,"Cc1nc(NC(=O)[C@H](C)N2CCC(F)(F)CC2)cn1Cc1cc(F)cc(F)c1 (single isomer, unassigned) [Compound 21]",
19 nM,2.1 nM,,"C[C@H](C(=O)Nc1coc(Cc2cc(F)cc(F)c2)n1)N1CCC(F)(F)[C@@H](c2cc[n+]([O-])cc2)C1 (single isomer, unassigned) [Compound 28]",
22 nM,4 nM,,"C[C@H](C(=O)Nc1cn(Cc2cc(F)cc(F)c2)cn1)N1CCC(F)(F)[C@@H](c2ccc(=O)[nH]c2)C1 (single isomer, unassigned) [Compound 55]",
,686 nM,79 nM,"C[C@H](C(=O)Nc1cn2c(n1)CC[C@@H]2c1cc(F)cc(F)c1)N1CCCCC1 (single isomer, unassigned) [Compound 498]",
,592 nM,614 nM,"C[C@@H](C(=O)Nc1cc2n(n1)CC[C@H]2c1cc(F)cc(F)c1)N1CCC(F)(F)[C@@H](c2ccc(=O)[nH]c2)C1 (single isomer, unassigned) [Compound 531]",
